Data: patent US5332732A, “Thiophene and pyridine antipsychotic agents” (McNeilab, Inc., priority 1992, dated 1994)
Where a name gives a salt, the structure may show the parent alone.

System: Conditioned Avoidance Responding (Rat)
Test: Block of Conditioned Avoidance Responding (Rat) test (CAR)
Type: in vivo, Male Fischer 344 rats
Conditions: for % escape loss: group mean % failures to escape; for % Inhibition CAR: mean % change in CAR vs vehicle day, negative = blockade
Source text: The antipsychotic activity of the compounds of the invention may be determined by the Block of Conditioned Avoidance Responding (Rat) test (CAR), the references being Cook, L. and E. Weidley in Ann. […] P. Reynolds Trends Pharmacol. Sci. 1992, 13, 116). […] Block of Conditioned Avoidance Responding (Rat) Apparatus: Rat operant chambers, housed within sound attenuated booths, both from […] Instruments Ltd., were used in this test. The test chamber (8" H×903/8" W×9" D) is constructed of aluminum and plexiglass with floor grid bars of stainless-steel (1/8" O.D.) spaced 9/16" apart. A stainless-steel operation level 11/2" wide projects 3/4" into the chamber and is positioned 2-2/8" above the grid floor. The shock stimulus is delivered via the grid floor by a Coulbourn Instruments solid state module. The parameters of the test and the collection of data are controlled automatically. Training: Male, Fischer 344 rats obtained from Charles River (Kingston, N.Y.) weighing more than 200 g, are individually housed with chow and water provided ad libitum. The rats are trained for two weeks to approach criterion levels in the avoidance test (90% avoidance rate). One-hour training sessions are run at about the same time each day for four or five days a week. The training session consists of 120 tdals, with the conditioned stimuli presented every 30 sec. A trial begins with presentation of the conditioned stimuli (a light and a tone). If the rat responds by depressing the operant lever during the 15-second presentation of the conditioned stimuli, the trial is terminated .and the animal is credited with a CAR. Failure to respond during the conditioned stimuli causes the presentation of the unconditioned stimulus (UCS), a 0.7 mA shock which is accompanied by a light and tone for […]. If the rat depressed the lever within the ten-second period, the shock and trial are terminated and an escape response recorded. If the rat fails to depress the lever during the UCS (shock), the trial is terminated after ten seconds of shock and the absence of a response is scored as a failure to escape. […] presses have no effect. If a rat performs at the 90% CAR level for two weeks, it is then run twice a week on the test schedule (see below) until baseline performance stabilized. Before any drug is administered, two weeks of CAR at a rate of 90% or better is required. Determination of ED50 Values Trained rats are run in a one-hour session on two consecutive days at the same time and in the same test chamber each day. The sessions consist of 60 trials, one every minute. The conditioned stimuli are presented for 15 sec (maximum) and the unconditioned stimuli five sec (maximum). On Day 1, a vehicle solution is administered to the rats at a time preceding the trial run corresponding to the pretreatment time for the test compound. The route of administration and the volume of vehicle are also matched to that of the test compound. […] The percent change in CAR on the drug treatment day compared to vehicle pretreatment day is the key measure. The percent change (% change) in CAR is determined using the following formula: % change CAR=((Day 2% CAR/Day 1% CAR)×100)-100 A negative number indicates a blockade of CAR, whereas a positive number would indicate increased CAR. The test results are reported as the mean % change for the group of rats. A reading of -20% is generally taken to represent a minimum value for a compound to be designated as active at a given dose in the CAR test. Failure to escape was calculated for each animal as follows: % Failures=# of Failures to Escape/# of trials The % failures, viz., loss of escape, is also reported as a group mean. Failures to escape are monitored closely and a session is terminated if ten failures occurred. ED50 values and 95% confidence limits are calculated using linear regression analysis.

| Structure (SMILES) | % escape loss (5 mpk, PI) | % Inhibition CAR (5 mpk, PI) | % escape loss (15 mpk) | % Inhibition CAR (15 mpk) |
| --- | --- | --- | --- | --- |
| CC(C)Oc1ccccc1N1CCN(Cc2ccc(C(=O)N3CCCCCC3)s2)CC1 [CP #3, Hexahydro-1-[[5-[[1-[2-(1-methylethoxy)phenyl]-4-piperazinyl]methyl]2-thienyl]carbonyl]-1H-azepine Monohydrochloride Hemi Hydrate] | 3% | -8% |  |  |
| CC(C)Oc1ccccc1N1CCN(Cc2ccc(C(=O)N3CCCCC3)s2)CC1.O=C(O)/C=C/C(=O)O [CP #1, 1-[[5-[[1-[2-(1-Methylethoxy)phenyl]-4-piperazinyl]methyl]-2-thienyl]carbonyl]piperidine Fumarate] | 18% | -56% |  |  |
| CC(C)Oc1ccccc1N1CCN(Cc2cc(C(=O)N3CCCCC3)cs2)CC1.Cl [CP #2, 1-[[5-[[1-[2-(1-Methylethoxy)phenyl]-4-piperazinyl]methyl]-3-thienyl]carbonyl]piperidine Monohydrochloride] | 34% | -72% |  |  |
| O=C1CCCCN1Cc1ccc(CN2CCN(c3cccc4ccoc34)CC2)s1 [CP #6, 1-[[5-[[1-(7-Benzofuranyl)-4-piperazinyl]methyl]-2-thienyl]methyl]-2-piperidinone1.5 Fumarate Hydrate] | 5% | -63% |  |  |
| CC(C)Oc1ccccc1N1CCN(Cc2ccc(CN3CCCCC3=O)s2)CC1 [CP #5, 1-[[5-[[1-[2-(1-Methylethoxy)phenyl-4-piperazinyl]methyl]-2-thienyl]methyl]-2-piperidinone Hydrochloride] | 3% | -58% |  |  |
| CC(C)Oc1ccccc1N1CCN(Cc2cccc(CN3CCCCC3=O)n2)CC1 [CP #7, 1-[[6-[[1-[2-(Methylethoxy)phenyl]-4-piperazinyl]methyl]pyridinyl]methyl]-2-piperidinone Hydrochloride] |  |  | 0% | -85% |
| CC(C)Oc1ccccc1N1CCN(Cc2cc(C(=O)N3CCCCCC3)cs2)CC1 [CP #4, Hexahydro-1-[5-[[-1-[2-(1-Methylethoxy)phenyl-4-piperazinyl]methyl]-3-thienyl]carbonyl]-1-H-azepine Hydrochloride Hydrate] | 3% | -41% |  |  |
